Columns and labels:
Cannabinoid receptor 1 = Cannabinoid receptor 1 (Homo sapiens, UniProt P21554); assay: (§1) cAMP Assay: CHO cells expressing human CB1 or CB2 receptors are seeded 17-24 hours prior to the experiment 50.000 cells per well in a black 96 well plate with flat clear bottom (Corning Costar #3904) in DMEM (Invitrogen No. 31331), 1×HT supplement, with 10% fetal calf serum and incubated at 5% CO2 and 37° C. in a humidified incubator. The growth medium was exchanged with Krebs Ringer Bicarbonate buffer with 1 mM IBMX and incubated at 30° C. for 30 min. Compounds were added to a final assay volume of 100 μl and incubated for 30 min at 30° C. Using the cAMP-Nano-TRF detection kit the assay (Roche Diagnostics) was stopped by the addition of 50 μl lysis reagent (Tris, NaCl, 1.5% Triton X100, 2.5% NP40, 10% NaN3) and 50 μl detection solutions (20 μM mAb Alexa700-cAMP 1:1, and 48 μM Ruthenium-2-AHA-cAMP) and shaken for 2 h at room temperature. The time-resolved energy transfer is measured by a TRF reader (Evotec Technologies GmbH), equipped with a ND:YAG laser as excitation source. The plate is measured twice with the excitation at 355 nm and at the emission with a delay of 100 ns and a gate of 100 ns, total exposure time 10 s at 730 (bandwidth 30 nm) or 645 nm (bandwidth 75 nm), respectively.
Cannabinoid receptor 2 = Cannabinoid receptor 2 (Homo sapiens, UniProt P34972); assay: as §1
Chain of Cannabinoid receptor 2 (P34972 whole entry): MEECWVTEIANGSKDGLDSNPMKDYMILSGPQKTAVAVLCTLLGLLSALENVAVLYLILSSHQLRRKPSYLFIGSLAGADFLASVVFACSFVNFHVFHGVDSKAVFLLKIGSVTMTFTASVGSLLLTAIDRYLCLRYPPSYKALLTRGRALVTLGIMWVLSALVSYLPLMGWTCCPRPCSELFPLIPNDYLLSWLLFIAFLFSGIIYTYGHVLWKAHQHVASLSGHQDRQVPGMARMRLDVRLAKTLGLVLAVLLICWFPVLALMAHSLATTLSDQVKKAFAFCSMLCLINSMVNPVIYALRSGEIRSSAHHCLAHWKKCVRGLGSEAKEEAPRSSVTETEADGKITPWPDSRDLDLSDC

Chain of Cannabinoid receptor 1 (P21554 whole entry): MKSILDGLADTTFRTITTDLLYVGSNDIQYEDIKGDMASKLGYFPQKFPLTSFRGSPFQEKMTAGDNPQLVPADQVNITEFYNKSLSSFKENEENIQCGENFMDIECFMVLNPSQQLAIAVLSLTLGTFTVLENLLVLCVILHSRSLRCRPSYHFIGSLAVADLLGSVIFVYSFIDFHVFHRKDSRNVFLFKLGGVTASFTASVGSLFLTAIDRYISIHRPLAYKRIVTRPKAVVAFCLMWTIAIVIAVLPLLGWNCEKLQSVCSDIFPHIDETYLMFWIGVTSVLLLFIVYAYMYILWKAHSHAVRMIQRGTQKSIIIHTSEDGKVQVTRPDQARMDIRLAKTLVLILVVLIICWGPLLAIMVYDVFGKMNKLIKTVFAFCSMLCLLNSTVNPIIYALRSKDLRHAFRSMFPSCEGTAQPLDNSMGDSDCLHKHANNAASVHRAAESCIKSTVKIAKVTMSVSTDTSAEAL

For `Cc1nonc1Cn1nnc2c(-c3ccc(F)nc3)nc(C(C)(C)C)nc21`, the EC50 (Cannabinoid receptor 1) was > 10000 nM and the EC50 (Cannabinoid receptor 2) was 639 nM.

With `Cn1nccc1-c1nc(C(C)(C)C)nc2c1nnn2CCC(F)(F)F` the EC50 (Cannabinoid receptor 1) was > 10000 nM and the EC50 (Cannabinoid receptor 2) was 131 nM.
